In patent publication US10544113B2 (priority 2016, dated 2020):
Like-named read-outs stand apart in the source and are kept apart here.

Molecular target: mu-opioid receptor (MOR) (Homo sapiens (Human), UniProt P35372)
Experiment: cell-based
Conditions: for AUC: AUC of [Ca2+]i fluorescence
Procedure: In an exemplary in vitro screening method for identifying antagonist-to-agonist allosteric modifiers of a MOR, cells that express a MOR are treated with a test compound and a MOR antagonist in a cellular calcium fluorescent assay and fluorescence intensity is then measured to determine whether the MOR is activated. A test compound is identified as an antagonist-to-agonist allosteric modifier of the MOR if the MOR is activated.
EC50 herein refers to the concentration of a compound that induces a response halfway between the baseline and the maximum after a specified exposure time. AUC refers to the area under the response curve, an indication of the compound's capability of activating a MOR when combined with a MOR antagonist.
Human embryonic kidney 293 (HEK-293) cells constitutively expressing MOR (HEK-MOR) and DOR (HEK-DOR) (kindly provided by Dr. Ping-Yee Law, University of Minnesota, USA) were cultured in high-glucose Dulbecco's modified Eagle's medium (DMEM, GIBCO) supplemented with 400 μg/mL G418 (Sigma), 2 mM L-glutamine and P/S/F (100 units/mL penicillin, 100 μg/mL streptomycin, 10% fetal bovine serum). Chinese hamster ovary (CHO)-K1 cells, stably expressing hMOR and Gα15 (CHO-K1/MOR/Gα15), were cultured in F12 medium (GIBCO) supplemented with 10 μg/mL Hygromycin B (Invivogen), 20 μg/mL Zeocin (Invivogen) P/S/F (100 units/mL penicillin, 100 μg/mL streptomycin, 10% fetal bovine serum). The cultures were incubated at 37° C. in a humidified 5% CO2 incubator.
One day before the assay, CORNING® black with clear flat bottom 96-well assay plates were coated with a 0.1 mg/mL Poly-L-Lysine solution. CHO-K1/MOR/Gα15 cells were suspended in the F12 medium and plated at a density of ˜8×10^4 cells/well in 200 μL medium. Cells were incubated in a humidified atmosphere of 10% CO2 at 37° C. overnight so as to reach an 80-90% confluent cell monolayer before assay. At the day of assay, 150 μL medium/well was removed from plate. To each well, 50 μL FLIPR® calcium assay reagent dissolved in 1× assay buffer (HBSS: KCl 5 mM, KH2PO4 0.3 mM, NaCl 138 mM, NaHCO3 4 mM, Na2HPO4 0.3 mM, d-glucose 5.6 mM, with additional 20 mM HEPES and 13 mM CaCl2, pH 7.4), with 2.5 mM probenecid was added and the plate was incubated at 37° C. for 1 h. Compounds and other reagents were dissolved in the assay buffer. Using a FlexStationIII (Molecular Devices Corp.), the [Ca^2+]i fluorescence increases after robotic injections of compounds or other reagents were monitored every 1.52 s interval with excitation wavelength at 485 nm and with emission wavelength at 525 nm. The [Ca^2+]i fluorescence was measured up to 90 s after agonist injection.
A CHO-K1 cell line, expressing a MOR and Gα15 (GenScript), was used to set up a sensitive high-throughput screen (HTS) system. In a FLIPR® calcium assay using CHO-K1/MOR/Gα15 cells, activation of MOR elicits an intracellular calcium release leading to an increase in the relative fluorescence units (FRU). […] The HTS was performed in the absence or presence of an opioid antagonist, naloxone (25 nM), to identify antagonist to agonist allosteric modifiers (AAM).
A CHO-K1 cell line, expressing a MOR and Gα15 (GenScript), was used to set up a sensitive assay system for detecting μ-opioid receptor activation. […] The assay was performed in the presence of an opioid antagonist, i.e., naloxone (25 nM), naltrexone (20 nM), samidorphan (10 nM), naloxonazine dihydrochloride (20 nM), β-funaltrexamine hydrochloride (20 nM), cyprodime hydrochloride (500 nM), or nalmefene (20 nM), in combination with compound 58, an antagonist to agonist allosteric modifier (AAM), to identify activation of the μ-opioid receptor.

[1] = CHO-K1/MOR/Gα15 cells, combined with a MOR antagonist
[2] = EC50, CHO-K1/MOR/Gα15 cells, combined with a MOR antagonist
[3] = FLIPR Ca^2+ EC50, combined with a MOR antagonist
[4] = combined with a MOR antagonist, read-out: FLIPR Ca^2+ EC50

Chain of mu-opioid receptor (MOR) (P35372 whole entry): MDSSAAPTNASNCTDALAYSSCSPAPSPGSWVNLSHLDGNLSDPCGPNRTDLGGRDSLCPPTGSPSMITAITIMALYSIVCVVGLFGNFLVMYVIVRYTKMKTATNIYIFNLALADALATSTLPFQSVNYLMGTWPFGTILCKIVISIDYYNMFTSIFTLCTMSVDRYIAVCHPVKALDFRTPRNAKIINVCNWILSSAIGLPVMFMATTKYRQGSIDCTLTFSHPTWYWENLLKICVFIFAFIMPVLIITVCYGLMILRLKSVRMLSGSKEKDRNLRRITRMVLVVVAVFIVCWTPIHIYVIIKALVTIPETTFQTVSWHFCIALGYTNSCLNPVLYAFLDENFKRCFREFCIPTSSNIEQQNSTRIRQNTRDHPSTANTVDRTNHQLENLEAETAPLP

SMILES | AUC [1] | EC50 [2] | EC50 [3] | FLIPR Ca^2+ AUC (combined with a MOR antagonist) | EC50 [4] | EC50 (CHO-K1/MOR/Gα15 cells, combined with a MOR antagonist, read-out: EC50)
[2H]C1(c2ccc(F)cc2)SCC(=O)N1c1ccc(C(=O)OCC)cc1C (centres unmarked) [Example 583, Ethyl 4-[2-(4-fluorophenyl)-4-oxo-2-d1-1,3-thiazolidin-3-yl]-3-methylbenzoate] | more than 5000 | < 10 µM | 4.42 µM | 11275 |  | 
CCOC(=O)c1ccc(N2C(=O)CSC2c2ccc(F)cc2)c(C)n1 (centres unmarked) [Example 635, Ethyl 5-[2-(4-fluorophenyl)-4-oxo-1,3-thiazolidin-3-yl]-6-methylpyridine-2-carboxylate] | more than 5000 |  |  | 9843 | 10.9 µM | 
Cc1cc(C(=O)OCC2CCCO2)ccc1N1C(=O)CSC1c1ccc(F)cc1 (centres unmarked) [Example 275] |  |  |  | 11236 | 26.9 µM | 
COCCCOC(=O)c1ccc(N2C(=O)CSC2c2ccc(F)cc2)c(C)c1 (centres unmarked) [Example 267] |  |  |  | 15960 | 6.4 µM | 
Cc1cc(C(=O)NS(=O)(=O)c2cccnc2)ccc1N1C(=O)CSC1c1ccc(F)cc1 (centres unmarked) [Example 211] | more than 5000 | < 10 µM |  | 8779 | 0.3 µM | 
CCCOC(=O)c1ccc(N2C(=O)CSC2c2ccc(F)cc2)c(C)c1 (centres unmarked) [Example 229] |  |  |  | 13237 | 9.7 µM | 
CCOC(=O)c1ccc(N2C(=O)CSC2c2ccc(F)cc2)c(C)c1 (centres unmarked) [Example 152] | more than 5000 |  |  | 14743 | 6.3 µM | < 10 µM
Cc1cc(C(=O)OCCCN2CCCCC2)ccc1N1C(=O)CSC1c1ccc(F)cc1 (centres unmarked) [Example 298] |  |  |  | 9283 | 1.7 µM | 
Cc1noc(N2C(=O)CSC2c2ccc(F)cc2)c1C (centres unmarked) [Example 395] | more than 5000 |  |  | 7107 | 12 µM | 
Cc1cc(C(=O)NS(=O)(=O)CC(C)C)ccc1N1C(=O)CSC1c1ccc(F)cc1 (centres unmarked) [Example 167] | more than 5000 | < 10 µM |  | 9905 | 3.4 µM | 
Cc1cc(C(=O)OCCCN2CCOCC2)ccc1N1C(=O)CSC1c1ccc(F)cc1 (centres unmarked) [Example 297] |  |  |  | 13753 | 8.1 µM | 
CCCCOC(=O)c1ccc(N2C(=O)CSC2c2ccc(F)cc2)c(C)c1 (centres unmarked) [Example 234] |  |  |  | 10062 | 9 µM | 
[2H]c1c([2H])c(C2SCC(=O)N2c2ccc(C(=O)OCC)cc2C)c([2H])c([2H])c1F (centres unmarked) [Example 580, Ethyl 4-{2-[4-fluoro-2,3,5,6-d4-phenyl]-4-oxo-1,3-thiazolidin-3-yl}-3-methylbenzoate] |  |  | 4.26 µM | 14441 |  | 
Cc1cc(C(=O)NO)ccc1N1C(=O)CSC1c1ccc(F)cc1 (centres unmarked) [Example 219] |  |  |  | 14222 | 6.4 µM | 
CCOC(=O)c1ccc(N2C(=O)CSC2c2ccc(F)cc2)c(CC)c1 (centres unmarked) [Example 156] | more than 5000 | < 10 µM |  | 11998 | 6.2 µM | 
Cc1cc(C(=N)NO)ccc1N1C(=O)CSC1c1ccc(F)cc1 (centres unmarked) [Example 151] | more than 5000 | < 10 µM |  | 10591 | 3.4 µM | 
COC(=O)c1ccc(N2C(=O)CSC2c2ccc(F)cc2)c(C)c1 (centres unmarked) [Example 59] |  |  |  | 11534 | 2.6 µM | 
CCS(=O)(=O)NC(=O)c1ccc(N2C(=O)CSC2c2ccc(F)cc2)c(C)c1 (centres unmarked) [Example 162] | more than 5000 | < 10 µM |  | 13767 | 9.1 µM | 
Cc1cc(C(=O)NS(=O)(=O)C2CC2)ccc1N1C(=O)CSC1c1ccc(F)cc1 (centres unmarked) [Example 169] | more than 5000 | < 10 µM |  | 13189 | 3 µM | 

SMILES | AUC [1] | EC50 [2] | EC50 [3] | FLIPR Ca^2+ AUC (combined with a MOR antagonist) | EC50 [4] | EC50 (CHO-K1/MOR/Gα15 cells, combined with a MOR antagonist, read-out: EC50)
Cc1cc(C(=O)NCCCn2ccnc2)ccc1N1C(=O)CSC1c1ccc(F)cc1 (centres unmarked) [Example 348] |  |  |  | 13641 | 8.8 µM | 
Cc1cc(C(=O)NS(=O)(=O)c2ccc(Br)cc2)ccc1N1C(=O)CSC1c1ccc(F)cc1 (centres unmarked) [Example 200] | more than 5000 | < 10 µM |  | 12340 | 0.2 µM | 
COc1cccc(NC(=O)c2ccc(N3C(=O)CSC3c3ccc(F)cc3)c(C)c2)c1 (centres unmarked) [Example 368] | more than 5000 | < 10 µM |  | 8915 | 6.7 µM | 
Cc1cc(C#N)ccc1N1C(=O)CSC1c1ccc(F)cc1 (centres unmarked) [Example 46] |  | < 10 µM |  |  |  | 
COc1ccc(C2SCC(=O)N2c2ccc(C(=O)O)cc2C)cc1 (centres unmarked) [Example 78] | more than 5000 | < 10 µM |  | 9368 | 6 µM | 
COC(=O)COc1ccc(N2C(=O)CSC2c2ccc(F)cc2)c(C)c1 (centres unmarked) [Example 93] | more than 5000 | < 10 µM |  | 11009 | 6.4 µM | 
Cc1cc(C)cc(CS(=O)(=O)NC(=O)c2ccc(N3C(=O)CSC3c3ccc(F)cc3)c(C)c2)c1 (centres unmarked) [Example 179] | more than 5000 | < 10 µM |  | 14442 | 1.1 µM | 
Cc1cc(C(=O)OC(C)CNC(=O)c2ccc[n+](C)c2)ccc1N1C(=O)CSC1c1ccc(F)cc1 (centres unmarked) [Example 328] |  |  |  |  | 11.8 µM | 
CCCS(=O)(=O)NC(=O)c1ccc(N2C(=O)CSC2c2ccc(F)cc2)c(C)c1 (centres unmarked) [Example 160] | more than 5000 | < 10 µM |  | 13549 | 4.3 µM | 
CC(C)(C)c1cc(N2C(=O)CSC2c2ccc(F)cc2)no1 (centres unmarked) [Example 640, 3-(5-tert-Butyl-1,2-oxazol-3-yl)-2-(4-fluorophenyl)-1,3-thiazolidin-4-one] | more than 5000 |  |  | 9872 | 14.2 µM | 
Cc1ccc(Br)cc1N1C(=O)CSC1c1ccc(F)cc1 (centres unmarked) [Example 149] |  | < 10 µM |  | 4427 | 4.4 µM | 
Cc1ccc(C(=O)O)cc1N1C(=O)CSC1c1ccc(F)cc1 (centres unmarked) [Example 54] |  |  |  | 8906 | 3.3 µM | 
Cc1cc(C(=O)N2CCC(N)CC2)ccc1N1C(=O)CSC1c1ccc(F)cc1 (centres unmarked) [Example 357] |  | < 10 µM |  | 12663 | 10 µM | 
Cc1cc(-c2ccco2)ccc1N1C(=O)CSC1c1ccc(F)cc1 (centres unmarked) [Example 224] | more than 5000 |  |  | 7384 | 11.7 µM | 
Cc1cc(C(=O)Nc2ccccc2)ccc1N1C(=O)CSC1c1ccc(F)cc1 (centres unmarked) [Example 361] | more than 5000 | < 10 µM |  | 6128 | 8.8 µM | 
Cc1cc(S(=O)(=O)NC(=O)c2ccc(N3C(=O)CSC3c3ccc(F)cc3)c(C)c2)c(C)cc1Cl (centres unmarked) [Example 208] |  | < 10 µM |  |  |  | 
Cc1ccc(F)cc1N1C(=O)CSC1c1ccc(F)cc1 (centres unmarked) [Example 112] |  | < 10 µM |  |  |  | 
Cc1cc(C(=O)NCc2cccc(C(F)(F)F)c2)ccc1N1C(=O)CSC1c1ccc(F)cc1 (centres unmarked) [Example 377] |  |  |  | 12637 | 12.5 µM | 
CC(=O)Nc1ccc(S(=O)(=O)NC(=O)c2ccc(N3C(=O)CSC3c3ccc(F)cc3)c(C)c2)cc1 (centres unmarked) [Example 202] | more than 5000 | < 10 µM |  | 17087 | 0.6 µM | 
